Assay results: US11078202B2, “β-lactamase inhibitor and use thereof” (priority 2018, dated 2021)
Where a name gives a salt, the structure may show the parent alone.

Key:
Format in all cases: cell-based
[1] = tested on: Klebsiella pneumoniae XNWB 0003; experiment: MIC assay of test compounds combined with imipenem (4 μg/mL); conditions: imipenem 4 μg/mL fixed
Summary of the method: (§1)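 Frozen strains, thawed and passaged twice on TSA (35±2 °C, 20-24 h), supplied colonies standardised in saline to OD600 0.1-0.15. These suspensions, diluted 300× in 1.1×CAMHB, were exposed to graded compound with constant partner antibiotic; MICs were read after 16-20 h at 35±2 °C.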

[2] = tested on: Klebsiella pneumoniae XNWB 0002; experiment: as above; conditions: imipenem 4 μg/mL fixed
Summary of the method: as §1

[3] = tested on: Pseudomonas aeruginosa XNWB 0008; experiment: as above; conditions: imipenem 4 μg/mL fixed
Summary of the method: as §1

[4] = tested on: Klebsiella pneumoniae XNWB 0004; experiment: as above; conditions: imipenem 4 μg/mL fixed
Summary of the method: as §1

[5] = tested on: Acinetobacter baumannii XNWB 0007; experiment: as above; conditions: imipenem 4 μg/mL fixed
Summary of the method: as §1

[6] = tested on: Klebsiella pneumoniae XNWB 0005; experiment: as above; conditions: imipenem 4 μg/mL fixed
Summary of the method: as §1

[7] = tested on: Klebsiella pneumoniae XNWB 0001; experiment: as above; conditions: imipenem 4 μg/mL fixed
Summary of the method: as §1

[8] = tested on: Klebsiella pneumoniae XNWB 0006; experiment: as above; conditions: imipenem 4 μg/mL fixed
Summary of the method: as §1

[9] = tested on: Escherichia coli XNWB 0010; experiment: MIC assay of test compounds combined with ampicillin (8 μg/mL); conditions: ampicillin 8 μg/mL fixed
Protocol: (§2) The bacterial strains used for the minimum inhibitory concentration (MIC) test were frozen in a −80° C. ULT freezer and thawed 2 days before use. A small amount of frozen bacterial strains were scraped using a sterile inoculating loop, streaked onto a TSA solid culture dish for inoculation, and then cultured for 20-24 h at 35±2° C. in a normal atmospheric environment.
(§3) 5-10 colonies with similar morphology were picked from the culture dish using a sterile inoculating loop and then re-streaked onto a suitable solid culture dish. Then the dish was placed into a normal incubator for culture for 20-24 h at 35±2° C.
(§4) 5-10 single bacterial colonies were picked from the solid culture dish, resuspended in 500 μL of 0.9% NaCl, and adjusted to an OD600 of 0.1-0.15 with a spectrophotometer.
(§5) The bacteria were then diluted 300-fold with 1.1×CAMHB.
(§6) Test compounds of columns A-H: having a highest final test concentration of 64 μg/mL or 32 μg/mL, 2-fold diluted.
(§7) Dilution of test compounds: All test compounds were dissolved and diluted in dimethylsulfoxide (DMSO). 170 μL of 3.2 mg/mL (50*64 μg/mL) compound was transferred to wells (A1-H1) of column 1 of a dilution master plate and then 85 μL of DMSO was transferred to wells of other columns. Each compound was diluted 2-fold in sequence (i.e., 85 μL of compound was pipetted from column 1 into column 2 and mixed uniformly, 85 μL of compound was pipetted from column 2 into column 3 and mixed uniformly, then 85 μL of compound was pipetted from column 3 into column 4 and mixed uniformly, and so on until the dilution was done in column 11).
(§8) Preparation of an additive of ampicillin: Ampicillin was dissolved in ddH2O. 30 μL of 100 μg/mL (12.5×8 μg/mL) ampicillin was transferred to columns 1-11 of an additive plate, followed by the addition of 30 μL of ddH2O to column 12.
(§9) 2 μL of each compound in the dilution master plate of the test compounds was transferred to the corresponding well of the assay plates. In the mean time, 2 μL of 100% DMSO was transferred to the compound-free wells (GC and SC wells). (1) 8 μL of imipenem in the additive plate of imipenem was transferred to the corresponding wells of the assay plates; (2) 8 μL of ceftazidime in the additive plate of ceftazidime was transferred to the corresponding wells of the assay plates; (3) 8 μL of ampicillin in the additive plate of ampicillin was transferred to the corresponding wells of the assay plates.
(§10) 90 μL of corresponding bacterial inocula were added to wells (except for SC wells) of the assay plates.
(§11) After addition, the 6 assay plates were covered by sterile covers. The mixtures in the assay plates were centrifuged by a centrifuge at 1000 rpm for 30 s, and mixed uniformly by oscillating with a microplate oscillator at 800 rpm for 1 min, and then cultured in a common incubator for 16-20 h at 35±2° C.
(§12) The minimum inhibitory concentration of each compound was recorded by reference to guidelines from the Clinical and Laboratory Standards Institute.
(§13) The minimum inhibitory concentrations of the compounds of the present invention and antibiotics (imipenem, ceftazidime, and ampicillin) against 11 strains of bacteria were tested in this study by reference to the medium microdilution method as indicated by the Clinical and Laboratory Standards Institute. The effect of the test compounds in combination with imipenem, ceftazidime, and ampicillin was also tested. Compounds were diluted two-fold in 96-well plates from the highest detection concentration of 64 μg/mL. The test compounds were tested in combination with a fixed concentration of imipenem (4 μg/mL), ceftazidime (8 μg/mL), and ampicillin (8 μg/mL). The bacterial inocula in the assay plates were resuscitated from TSA and diluted in CAMHB, while growth controls (GC wells) and sterile controls (SC wells) were set up in the assay plates. […]

[10] = tested on: Escherichia coli XNWB 0009; experiment: as above; conditions: ampicillin 8 μg/mL fixed
Protocol: as §2, §3, §4, §5, §6, §7, §8, §9, §10, §11, §12, §13

[11] = tested on: Enterobacter aerogenes XNWB 0011; experiment: as above; conditions: ampicillin 8 μg/mL fixed
Protocol: as §2, §3, §4, §5, §6, §7, §8, §9, §10, §11, §12, §13

[12] = tested on: Klebsiella pneumoniae XNWB 0003; experiment: MIC assay of test compounds combined with ceftazidime (8 μg/mL); conditions: ceftazidime 8 μg/mL fixed
Summary of the method: as §1

[13] = tested on: Klebsiella pneumoniae XNWB 0002; experiment: as above; conditions: ceftazidime 8 μg/mL fixed
Summary of the method: as §1

[14] = tested on: Pseudomonas aeruginosa XNWB 0008; experiment: as above; conditions: ceftazidime 8 μg/mL fixed
Summary of the method: as §1

[15] = tested on: Klebsiella pneumoniae XNWB 0004; experiment: as above; conditions: ceftazidime 8 μg/mL fixed
Summary of the method: as §1

[16] = tested on: Acinetobacter baumannii XNWB 0007; experiment: as above; conditions: ceftazidime 8 μg/mL fixed
Summary of the method: as §1

[17] = tested on: Klebsiella pneumoniae XNWB 0005; experiment: as above; conditions: ceftazidime 8 μg/mL fixed
Summary of the method: as §1

[18] = tested on: Klebsiella pneumoniae XNWB 0001; experiment: as above; conditions: ceftazidime 8 μg/mL fixed
Summary of the method: as §1

[19] = tested on: Klebsiella pneumoniae XNWB 0006; experiment: as above; conditions: ceftazidime 8 μg/mL fixed
Summary of the method: as §1

Row | SMILES | The minimum concentration of test compounds combined with imipenem (4 μg/mL) for bacteriostasis [1] | The minimum concentration of test compounds combined with imipenem (4 μg/mL) for bacteriostasis [2] | The minimum concentration of test compounds combined with imipenem (4 μg/mL) for bacteriostasis [3] | The minimum concentration of test compounds combined with imipenem (4 μg/mL) for bacteriostasis [4] | The minimum concentration of test compounds combined with imipenem (4 μg/mL) for bacteriostasis [5] | The minimum concentration of test compounds combined with imipenem (4 μg/mL) for bacteriostasis [6] | The minimum concentration of test compounds combined with imipenem (4 μg/mL) for bacteriostasis [7] | The minimum concentration of test compounds combined with imipenem (4 μg/mL) for bacteriostasis [8] | The minimum concentration of test compounds combined with ampicillin (8 μg/mL) for bacteriostasis [9] | The minimum concentration of test compounds combined with ampicillin (8 μg/mL) for bacteriostasis [10] | The minimum concentration of test compounds combined with ampicillin (8 μg/mL) for bacteriostasis [11] | The minimum concentration of test compounds combined with ceftazidime (8 μg/mL) for bacteriostasis [12] | The minimum concentration of test compounds combined with ceftazidime (8 μg/mL) for bacteriostasis [13] | The minimum concentration of test compounds combined with ceftazidime (8 μg/mL) for bacteriostasis [14] | The minimum concentration of test compounds combined with ceftazidime (8 μg/mL) for bacteriostasis [15] | The minimum concentration of test compounds combined with ceftazidime (8 μg/mL) for bacteriostasis [16] | The minimum concentration of test compounds combined with ceftazidime (8 μg/mL) for bacteriostasis [17] | The minimum concentration of test compounds combined with ceftazidime (8 μg/mL) for bacteriostasis [18] | The minimum concentration of test compounds combined with ceftazidime (8 μg/mL) for bacteriostasis [19]
1 | N=C(N)NCC1(c2nnc([C@@H]3CC4(CC4)[C@@H]4CN3C(=O)N4OS(=O)(=O)O)o2)CC1 [Example 13, (1R,4S)-4-(5-(1-(guanidinomethyl)cyclopropyl)-1,3,4-oxadiazol-2-yl)-6-oxo-5,7-diazaspiro[bicyclo[3.2.1]octane-2,1′-cyclopropan]-7-yl sulfate] | A (A: <8 μg/mL) | A (A: <8 μg/mL) | A (A: <8 μg/mL) | A (A: <8 μg/mL) | C (C: 16-128 μg/mL) | A (A: <8 μg/mL) | A (A: <8 μg/mL) | A (A: <8 μg/mL) | A (A: <8 μg/mL) | A (A: <8 μg/mL) | A (A: <8 μg/mL) | A (A: <8 μg/mL) | A (A: <8 μg/mL) | B (B: 8-16 μg/mL) | B (B: 8-16 μg/mL) | B (B: 8-16 μg/mL) | A (A: <8 μg/mL) | A (A: <8 μg/mL) | A (A: <8 μg/mL)
2 | O=C1N2C[C@H](N1OS(=O)(=O)O)C1(CC1)C[C@H]2c1cc(C2CCNCC2)on1 [Example 43, (1R,4S)-6-oxo-4-(5-(piperidin-4-yl)isoxazol-3-yl)-5,7-diazaspiro[bicyclo[3.2.1]octane-2,1′-cyclopropan]-7-yl sulfate] | A (A: <8 μg/mL) | A (A: <8 μg/mL) | A (A: <8 μg/mL) | A (A: <8 μg/mL) | C (C: 16-128 μg/mL) | A (A: <8 μg/mL) | A (A: <8 μg/mL) | A (A: <8 μg/mL) | A (A: <8 μg/mL) | A (A: <8 μg/mL) | B (B: 8-16 μg/mL) | B (B: 8-16 μg/mL) | A (A: <8 μg/mL) | B (B: 8-16 μg/mL) | B (B: 8-16 μg/mL) | C (C: 16-128 μg/mL) | A (A: <8 μg/mL) | A (A: <8 μg/mL) | A (A: <8 μg/mL)
